This data set concerns rodent lifetime carcinogenesis bioassay, tumor incidence TD50. In words: chronic cancer bioassays in animals – CPDB, compiled studies (AID 1745844).

Calls of active or inactive are those of the source. The rule behind the calls is not given here.

On to `CCCOC(=O)c1cc(O)c(O)c(O)c1`, for which the TD50 (as a rule, the dose at which the toxic effect under study appears in half of the subjects) by setting is: (mouse, strain B6C3F1, females, in feed, site: liver, lesion: hepatocellular adenoma + hepatocellular carcinoma + neoplastic nodule, dosed 103 weeks, study length 105 weeks) 21400 mg/kg/day; (mouse, strain B6C3F1, females, in feed, site: liver, lesion: hepatocellular adenoma, dosed 103 weeks, study length 105 weeks) 8260 mg/kg/day (inactive); (mouse, strain B6C3F1, females, in feed, site: lung, lesion: alveolar/bronchiolar adenoma + alveolar/bronchiolar carcinoma, dosed 103 weeks, study length 105 weeks) 44300 mg/kg/day; (mouse, strain B6C3F1, males, in feed, site: all sites, lesion: lymphoma, histiocytic type, dosed 103 weeks, study length 105 weeks) 15100 mg/kg/day; (mouse, strain B6C3F1, males, in feed, site: all sites, lesion: lymphoma, dosed 103 weeks, study length 105 weeks) 6540 mg/kg/day (inactive); (mouse, strain B6C3F1, males, in feed, site: all sites, lesion: malignant lymphoma, dosed 103 weeks, study length 105 weeks) 12100 mg/kg/day. Moreover, the TD50 is 3640 mg/kg/day (mouse, strain B6C3F1, males, in feed, site: any site (literature study), lesion: several types, types named in the paper, dosed 103 weeks, study length 105 weeks); 55600 mg/kg/day (mouse, strain B6C3F1, males, in feed, site: lung, lesion: alveolar/bronchiolar adenoma + alveolar/bronchiolar carcinoma, dosed 103 weeks, study length 105 weeks); 8080 mg/kg/day (inactive) (rat, strain Fischer 344, females, in feed, site: mammary gland, lesion: adenoma, dosed 103 weeks, study length 105 weeks); 613 mg/kg/day (rat, strain Fischer 344, males, in feed, site: adrenal gland, lesion: pheochromocytoma + pheochromocytoma, malignant, dosed 103 weeks, study length 105 weeks); 613 mg/kg/day (rat, strain Fischer 344, males, in feed, site: adrenal gland, lesion: pheochromocytoma, dosed 103 weeks, study length 105 weeks); 840 mg/kg/day (rat, strain Fischer 344, males, in feed, site: pancreatic islets, lesion: islet-cell adenoma + islet-cell carcinoma, dosed 103 weeks, study length 105 weeks). Besides, the TD50 is 749 mg/kg/day (inactive) (rat, strain Fischer 344, males, in feed, site: pancreatic islets, lesion: islet-cell adenoma, dosed 103 weeks, study length 105 weeks); 1040 mg/kg/day (rat, strain Fischer 344, males, in feed, site: preputial gland, lesion: adenocarcinoma + adenoma + carcinoma, dosed 103 weeks, study length 105 weeks); 6870 mg/kg/day (rat, strain Fischer 344, males, in feed, site: thyroid gland, lesion: follicular-cell adenoma + follicular-cell carcinoma, dosed 103 weeks, study length 105 weeks). For the same molecule, the carcinogen call was “negative (inactive)” (rat, strain F344/DuCrj, males, in feed, site: esophagus, lesion: one or several types, types not named, dosed 52 weeks, study length 52 weeks); “negative (inactive)” (rat, strain F344/DuCrj, males, in feed, site: forestomach, lesion: one or several types, types not named, dosed 52 weeks, study length 52 weeks); “negative (inactive)” (rat, strain F344/DuCrj, males, in feed, site: liver, lesion: one or several types, types not named, dosed 52 weeks, study length 52 weeks).

Molecule `COC(=O)C1=CCCN(N=O)C1` displayed a TD50 (rat, strain Fischer 344, males, in drinking water, site: pancreas, exocrine, lesion: acinar-cell adenoma, dosed 128 weeks, study length 128 weeks) of 7.95 mg/kg/day.

As for `S=[Se]`, the TD50 is 69.7 mg/kg/day (mouse, strain B6C3F1, females, by gavage, site: any site (literature study), lesion: several types, types named in the paper, dosed 103 weeks, study length 104 weeks); 46.8 mg/kg/day (mouse, strain B6C3F1, females, by gavage, site: liver + lung, lesion: hepatocellular adenoma + hepatocellular carcinoma + alveolar/bronchiolar adenoma + alveolar/bronchiolar carcinoma, dosed 103 weeks, study length 104 weeks); 69.3 mg/kg/day (mouse, strain B6C3F1, females, by gavage, site: liver, lesion: hepatocellular adenoma + hepatocellular carcinoma + neoplastic nodule, dosed 103 weeks, study length 104 weeks); 69.3 mg/kg/day (mouse, strain B6C3F1, females, by gavage, site: liver, lesion: hepatocellular adenoma + hepatocellular carcinoma, dosed 103 weeks, study length 104 weeks); 85.2 mg/kg/day (mouse, strain B6C3F1, females, by gavage, site: liver, lesion: hepatocellular carcinoma, dosed 103 weeks, study length 104 weeks); 137 mg/kg/day (mouse, strain B6C3F1, females, by gavage, site: lung, lesion: alveolar/bronchiolar adenoma + alveolar/bronchiolar carcinoma, dosed 103 weeks, study length 104 weeks). The TD50 (mouse, strain B6C3F1, females, by gavage, site: lung, lesion: alveolar/bronchiolar carcinoma, dosed 103 weeks, study length 104 weeks) was 433 mg/kg/day; the TD50 (mouse, strain B6C3F1, males, by gavage, site: any site (literature study), lesion: several types, types named in the paper, dosed 103 weeks, study length 104 weeks) was 735 mg/kg/day (inactive); the TD50 (mouse, strain B6C3F1, males, by gavage, site: liver, lesion: hepatocellular adenoma + hepatocellular carcinoma + neoplastic nodule, dosed 103 weeks, study length 104 weeks) was 202 mg/kg/day; the TD50 (mouse, strain B6C3F1, males, by gavage, site: lung, lesion: alveolar/bronchiolar adenoma + alveolar/bronchiolar carcinoma, dosed 103 weeks, study length 104 weeks) came to 183 mg/kg/day; the TD50 (rat, strain Fischer 344, females, by gavage, site: any site (literature study), lesion: several types, types named in the paper, dosed 103 weeks, study length 104 weeks) turned out to be 19.3 mg/kg/day; the TD50 (rat, strain Fischer 344, females, by gavage, site: liver, lesion: hepatocellular adenoma + hepatocellular carcinoma + neoplastic nodule, dosed 103 weeks, study length 104 weeks) was 6.14 mg/kg/day. In addition, the TD50 is 6.14 mg/kg/day (rat, strain Fischer 344, females, by gavage, site: liver, lesion: hepatocellular carcinoma + neoplastic nodule, dosed 103 weeks, study length 104 weeks); 13.2 mg/kg/day (rat, strain Fischer 344, females, by gavage, site: liver, lesion: hepatocellular carcinoma, dosed 103 weeks, study length 104 weeks); 25 mg/kg/day (rat, strain Fischer 344, males, by gavage, site: any site (literature study), lesion: several types, types named in the paper, dosed 103 weeks, study length 104 weeks); 11.5 mg/kg/day (rat, strain Fischer 344, males, by gavage, site: liver, lesion: hepatocellular adenoma + hepatocellular carcinoma + neoplastic nodule, dosed 103 weeks, study length 104 weeks); 11.5 mg/kg/day (rat, strain Fischer 344, males, by gavage, site: liver, lesion: hepatocellular carcinoma + neoplastic nodule, dosed 103 weeks, study length 104 weeks); 21 mg/kg/day (rat, strain Fischer 344, males, by gavage, site: liver, lesion: hepatocellular carcinoma, dosed 103 weeks, study length 104 weeks).

As to `CC(O)CN(N=O)C(=O)NCCCl` (centres undefined), the TD50 was 0.962 mg/kg/day (rat, strain Fischer 344, females, by gavage, site: all sites, lesion: mononuclear-cell leukemia, dosed 40 weeks, study length 95 weeks); 8.81 mg/kg/day (rat, strain Fischer 344, females, by gavage, site: liver, lesion: hepatocellular carcinoma, dosed 40 weeks, study length 95 weeks); 0.885 mg/kg/day (rat, strain Fischer 344, females, by gavage, site: liver, lesion: neoplastic nodule, dosed 40 weeks, study length 95 weeks); 0.885 mg/kg/day (rat, strain Fischer 344, females, by gavage, site: liver, lesion: several types, types named in the paper, dosed 40 weeks, study length 95 weeks); 2.71 mg/kg/day (rat, strain Fischer 344, males, by gavage, site: liver, lesion: hepatocellular carcinoma, dosed 35 weeks, study length 120 weeks); 1.17 mg/kg/day (rat, strain Fischer 344, males, by gavage, site: liver, lesion: neoplastic nodule, dosed 35 weeks, study length 120 weeks). Also, the TD50 reads like this: (rat, strain Fischer 344, males, by gavage, site: liver, lesion: several types, types named in the paper, dosed 35 weeks, study length 120 weeks) 0.861 mg/kg/day; (rat, strain Fischer 344, males, by gavage, site: lung, lesion: alveolar/bronchiolar tumor, dosed 35 weeks, study length 120 weeks) 2.39 mg/kg/day.

For the molecule `CCNc1nc(Cl)nc(NC(C)(C)C#N)n1`, the TD50 (rat, strain Charles River CD (Sprague-Dawley), females, in feed, site: liver, lesion: hepatocellular adenoma, dosed 105 weeks, study length 105 weeks) was 280 mg/kg/day; the TD50 (rat, strain Charles River CD (Sprague-Dawley), females, in feed, site: mammary gland, lesion: adenocarcinoma, dosed 105 weeks, study length 105 weeks) was 6.65 mg/kg/day; the TD50 (rat, strain Charles River CD (Sprague-Dawley), females, in feed, site: mammary gland, lesion: benign tumor, dosed 52 weeks, study length 52 weeks) turned out to be 8.77 mg/kg/day; the TD50 (rat, strain Charles River CD (Sprague-Dawley), females, in feed, site: mammary gland, lesion: carcinosarcoma, dosed 105 weeks, study length 105 weeks) was determined as 140 mg/kg/day; the TD50 (rat, strain Charles River CD (Sprague-Dawley), females, in feed, site: mammary gland, lesion: fibroadenoma, dosed 52 weeks, study length 52 weeks) turned out to be 3.03 mg/kg/day; the TD50 (rat, strain Charles River CD (Sprague-Dawley), females, in feed, site: mammary gland, lesion: malignant tumor, dosed 105 weeks, study length 105 weeks) was 6.33 mg/kg/day. This molecule also returned a TD50 (rat, strain Charles River CD (Sprague-Dawley), females, in feed, site: mammary gland, lesion: several types, types named in the paper, dosed 105 weeks, study length 105 weeks) of 22.9 mg/kg/day. The carcinogen call is “negative (inactive)” (rat, strain Charles River CD (Sprague-Dawley), males, in feed, site: liver, lesion: hepatocellular adenoma, dosed 104 weeks, study length 104 weeks) and “negative (inactive)” (rat, strain Charles River CD (Sprague-Dawley), males, in feed, site: liver, lesion: one or several types, types not named, dosed 52 weeks, study length 52 weeks).

The values are drawn from PubChem BioAssay AID1745844 (Carcinogenic Potency Database (CPDB), 2022).
